Among the test systems are M14; SK-MEL-28; TK-10; IGROV-1; HCC 2998; HL-60; SF-268; SK-MEL-5; SK-MEL-2; U-251; KM12; SNB-19; OVCAR-8; SN12C; UO-31; LOX IMVI; HOP-62; MCF7; K562; HCT-116.
Common to all, as to test: inhibition of tumour cell growth, NCI panel, 48 h

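Cells were grown in 96-well plates and exposed to each compound for 48 hours at five concentrations; endpoints were interpolated linearly between bracketing concentrations, or set to the highest concentration if not reached. Here, GI50 denotes the concentration required for 50% inhibition of growth.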 Calls of active or inactive are those of the source. No stated cut-off is given here; in the data, active = GI50 up to about 1.1 µM and inactive = higher.

On to `CCN(CC)C(=S)N/N=C(\C)c1cccc(C)n1`, for which the GI50 is < 0.041 µM (active) in the assay on M14; 0.308 µM (active) in the assay with SK-MEL-28; 0.832 µM (active) in the assay with TK-10; < 0.01 µM (active) in the assay with IGROV-1; 0.363 µM (active) in the assay on HCC 2998; < 0.01 µM (active) in the assay on HL-60. In addition, the GI50 in the assay with SF-268 is 0.0593 µM (active); with SK-MEL-5 it was 0.0593 µM (active); in the assay on SK-MEL-2, 2.2 µM (inactive); in the assay with U-251, < 0.0431 µM (active); in the assay on KM12 it was 0.201 µM (active); in the assay on SNB-19, 0.571 µM (active). Moreover, the GI50 was 0.287 µM (active) in the assay on OVCAR-8; 0.292 µM (active) in the assay with SN12C; 0.133 µM (active) with UO-31; < 0.01 µM (active) in the assay with LOX IMVI; 0.102 µM (active) in the assay on HOP-62; < 0.01 µM (active) with MCF7. The GI50 in the assay on K562 and with HCT-116 was < 0.01 µM (active) throughout.

`C[N+](C)(N)c1nc(N)c(C#N)c(C#N)c1C#N`: the GI50 in the assay with M14, in the assay with SK-MEL-28, in the assay on TK-10, in the assay on IGROV-1, in the assay on HCC 2998 and in the assay with HL-60 was > 10 µM (inactive) each time. Further, the GI50 with SF-268, in the assay on SK-MEL-5, in the assay with SK-MEL-2, in the assay on U-251, in the assay with SNB-19 and with OVCAR-8 was > 10 µM (inactive) in each case. For the same compound, the GI50 in the assay with SN12C is > 10 µM (inactive); in the assay on UO-31 it was > 10 µM (inactive); in the assay on LOX IMVI it was > 10 µM (inactive); in the assay with HOP-62, > 10 µM (inactive); with MCF7, > 10 µM (inactive); in the assay with K562, 7.01 µM (inactive). Also, the GI50 in the assay on HCT-116 was > 10 µM (inactive).

In the case of `CC1C/C(=C\c2ccc(O)c(O)c2)C(=O)/C(=C/c2ccc(O)c(O)c2)C1` (stereo not given), the GI50 with SK-MEL-28 is 7.69 µM (inactive); in the assay on TK-10, 25 µM (inactive); with IGROV-1 it was 6 µM (inactive); in the assay with HCC 2998 it was 18.2 µM (inactive); in the assay with HL-60 it was 4.93 µM (inactive); with SF-268, 6.12 µM (inactive). Further, the GI50 in the assay on SK-MEL-5 is 4.23 µM (inactive); in the assay on SK-MEL-2, 6.97 µM (inactive); in the assay with U-251, 5.51 µM (inactive); with KM12, 8.17 µM (inactive); in the assay with SNB-19, 10.7 µM (inactive); in the assay on OVCAR-8, 9.04 µM (inactive). Besides, the GI50 in the assay on SN12C was 5.48 µM (inactive); with LOX IMVI, 7.06 µM (inactive); with HOP-62 it was 11.3 µM (inactive); in the assay on MCF7 it was 3.11 µM (inactive); in the assay on K562, 5.83 µM (inactive); in the assay with HCT-116, 6.67 µM (inactive).

Regarding `COc1ccc(NC2=NCCO2)c2ccccc12`, the GI50 in the assay on M14, in the assay on SK-MEL-28, with TK-10, with IGROV-1, in the assay with HCC 2998 and in the assay on HL-60 was > 10 µM (inactive) throughout. In addition, the GI50 with SF-268, with SK-MEL-5, in the assay with SK-MEL-2, in the assay on KM12, with SNB-19 and in the assay with OVCAR-8 was > 10 µM (inactive) in each case. The GI50 in the assay with SN12C, in the assay with UO-31, in the assay on LOX IMVI, in the assay with HOP-62, in the assay with MCF7 and in the assay with K562 was > 10 µM (inactive) in each case. The GI50 in the assay with HCT-116 is > 10 µM (inactive).

Regarding `O=C(NCCCNC(=O)c1ccc2cc(O)c(O)cc2c1)c1ccc2cc(O)c(O)cc2c1`, the GI50 was 45.7 µM (inactive) in the assay on M14; 40.4 µM (inactive) in the assay with SK-MEL-28; 37.9 µM (inactive) with TK-10; 35.6 µM (inactive) in the assay with IGROV-1; 18.6 µM (inactive) in the assay with HCC 2998; 19.2 µM (inactive) in the assay with HL-60. Moreover, the GI50 is 28.8 µM (inactive) in the assay with SF-268; 22.8 µM (inactive) with SK-MEL-5; 13.1 µM (inactive) with SK-MEL-2; 21.9 µM (inactive) in the assay on U-251; 37.9 µM (inactive) with KM12; 18.3 µM (inactive) in the assay with SNB-19. Further, the GI50 in the assay on OVCAR-8 is 35.2 µM (inactive); with UO-31, 34.1 µM (inactive); with LOX IMVI it was 24.2 µM (inactive); with HOP-62 it was 25.1 µM (inactive); in the assay with MCF7 it was 30.9 µM (inactive); in the assay on K562, 33.7 µM (inactive). Moreover, the GI50 in the assay with HCT-116 is 37.4 µM (inactive).
